{"source": "patent US12220525B2", "about": "“Tiotropium formulation and inhaler” (KINDEVA DRUG DELIVERY L.P., priority 2018, dated 2025)", "assay": "Delivered dose study (unit spray collection apparatus, USCA)", "type": "physicochemical", "experimental": "Metered dose inhalers (MDIs) were prepared using deep drawn aluminum canisters (3M Corporation, Cltheroe, UK), 50 microliter Bespak PBT (polybutylene terephthalate) valves (BK0514719, Bespak Europe Ltd, Bergen Way, King's Lynn, Norfolk, PE30 2JJ) fitted with EPDM (ethylene-propylene diene terpolymer elastomer) diaphragm seals, and an Mk6 P&B actuator. The internal surface of each canister was coated with FEP (fluorinated ethylene propylene copolymer). The bulk formulation for cold filling individual canisters can be prepared by first admixing citric acid and the ethanol, and then adding the tiotropium bromide to the citric acid and ethanol mixture. HFA-134a propellant was then added to a separate batching vessel, and the mixture of tiotropium bromide, citric acid, and ethanol was then added be to the HFA-134a. The formulation was mixed at −50° C. The metered dose inhalers made according to Table 1 were designed to deliver 5 micrograms of Tiotropium (free base) per actuation.\nThe start of unit life delivered dose was determined using standard unit spray collection apparatus (USCA) fitted with a filter. For each determination, an MDI was attached to the USCA using a coupler and actuated a single time. Immediately prior to attachment, the MDI was shaken. Prior to collection of the test sample, the MDI was primed by actuating four times. Prior to each priming shot the MDI was shaken."}
{"molecule": "C[N+]1(C)[C@@H]2C[C@@H](OC(=O)C(O)(c3cccs3)c3cccs3)C[C@H]1[C@@H]1O[C@@H]12", "note": "[tiotropium bromide]", "values": [{"measurement": "Start of life dose content uniformity", "setting": "MDI with Table 1 formulation (0.1204 mg/ml tiotropium bromide, 0.04 wt. % citric acid, 15 wt. % ethanol, HFA-134a; FEP can), primed by actuating four times, single actuation, FIG. 5", "result": 4.3, "unit": "mcg/actuation"}, {"measurement": "uniformity of dose delivered on storage", "setting": "MDI with Table 1 formulation, on storage, FIG. 7", "result": "remained constant on storage"}]}
